Source: paper PMC11361989, “A simple HPLC–MS/MS method for the determination of polymyxin B in human plasma and its application in the pharmacokinetic study in elderly patients infected with multidrug-resistant Gram-negative bacteria” (Frontiers in Pharmacology, 2024)
Like-named read-outs stand apart in the source and are kept apart here.

Tests used:
[1] = Stability of working solutions of PB1 and PB2; format: physicochemical
Experimental: All the above solutions were stored at −70°C.

[2] = Stability of PB1 and PB2 in human plasma under different storage conditions; conditions: human plasma, n = 3
Experimental: The stock solutions of the calibrators and quality control (QC) samples should be prepared separately in the same way. The PB stock solution for calibrators and QC samples was prepared in water (1% FA) at 400.48 μg/mL for PB1 and 40.84 μg/mL for PB2. Consequently, working solutions for construction of calibrators and QC were prepared by serially diluting the stock solution with a 1% aqueous solution of FA. The concentrations of the working solutions for calibrators were 10.01, 30.03, 50.05, 100.12, 150.18, and 200.24 μg/mL for PB1 and 1.02, 3.06, 5.10, 10.21, 15.31, and 20.42 μg/mL for PB2. The concentrations of working solutions for QCs were prepared at 20.02 μg/mL (LQC), 90.11 μg/mL (MQC), and 180.22 μg/mL (HQC) for PB1 and 2.04 μg/mL (LQC), 9.18 μg/mL (MQC), and 18.36 μg/mL (HQC) for PB2. The working solution of IS (10.00 μg/mL) was prepared using methanol. All the above solutions were stored at −70°C. The calibrators and QC samples were obtained by spiking 90 μL of blank plasma with 10 μL of working solution at the corresponding concentration. The standard curves were in the range of 1.00–20.02 μg/mL and 0.10–2.04 μg/mL for PB1 and PB2, respectively.
Typically, 100 μL of the plasma sample was mixed with 10 μL IS working solution, and then, 300 μL 0.1% FA in methanol was added to the sample for protein precipitation. The mixture was vortexed for 3 min and centrifuged in an Eppendorf 5415D microcentrifuge (Eppendorf, Hamburg, Germany) at 11,000 g rpm for 10 min. Subsequently, 200 μL of the supernatant was transferred into a clean polypropylene tube and diluted with 150 μL of 0.1% FA in water. The mixture solution was vortexed for 3 min and centrifuged at 11,000 rpm for 10 min using the same centrifuge. Finally, 200 μL of the supernatant was transferred into an injection bottle, and 10 μL was injected into the HPLC–MS/MS for analysis.
The stability of the working solutions of PB1 and PB2 was evaluated. The short-term stability and long-term stability of PB1 and PB2 in human plasma were evaluated under the following conditions: placed at room temperature or 4°C for 24 h, frozen and thawed three times, and stored at −70°C for 85 days. The stability evaluation was conducted for both LQC and HQC concentrations.

[3] = Stability of PB1 and PB2 in human whole blood at room temperature or 4°C; conditions: clinical TDM whole blood, plasma by HPLC-MS/MS
Experimental: Moreover, the stability of PB1 and PB2 in whole blood was determined using redundant TDM whole-blood samples. A clinical whole-blood sample was obtained and immediately divided into 10 aliquots and placed at room temperature (25°C) or 4°C. At the designated time point, one of the aliquots was removed and immediately centrifuged to obtain 100 μL of a plasma sample. Then, all plasma samples were stored at −70°C until further analysis. Two parallel samples were tested at each storage condition, and the results were expressed as the percentage ratios of PB1 or PB2 concentrations measured at different time points to the initial PB1 or PB2 concentration.

Substance: polymyxin B1 [PB1]
- Stability of working solutions ([1]; working solutions in 1% aqueous formic acid at LQC and HQC concentrations, stored at −70°C): remained stable after storage at −70 °C for up to 7 days but not beyond 10 days
- Stability in human plasma, RE ([2]; 4°C for 24 h, target PB1 2.00 / PB2 0.20 μg/mL (LQC)): +3.25%
- Stability in human plasma, RE ([2]; 4°C for 24 h, target PB1 9.01 / PB2 0.92 μg/mL (MQC)): −7.38%
- Stability in human plasma, RE ([2]; 4°C for 24 h, target PB1 18.02 / PB2 1.84 μg/mL (HQC)): −3.87%
- Stability in human plasma, RE ([2]; room temp. for 24 h, target PB1 2.00 / PB2 0.20 μg/mL (LQC)): −11.99%
- Stability in human plasma, RE ([2]; room temp. for 24 h, target PB1 9.01 / PB2 0.92 μg/mL (MQC)): +5.18%
- Stability in human plasma, RE ([2]; room temp. for 24 h, target PB1 18.02 / PB2 1.84 μg/mL (HQC)): +6.19%
- Stability in human plasma, RE ([2]; three freeze–thaw cycles, target PB1 2.00 / PB2 0.20 μg/mL (LQC)): −4.15%
- Stability in human plasma, RE ([2]; three freeze–thaw cycles, target PB1 9.01 / PB2 0.92 μg/mL (MQC)): +3.09%
- Stability in human plasma, RE ([2]; three freeze–thaw cycles, target PB1 18.02 / PB2 1.84 μg/mL (HQC)): +1.01%
- Stability in human plasma, RE ([2]; −70°C for 85 days, target PB1 2.00 / PB2 0.20 μg/mL (LQC)): −2.50%
- Stability in human plasma, RE ([2]; −70°C for 85 days, target PB1 9.01 / PB2 0.92 μg/mL (MQC)): +0.10%
- Stability in human plasma, RE ([2]; −70°C for 85 days, target PB1 18.02 / PB2 1.84 μg/mL (HQC)): +1.95%
- Concentration after storage in human blood ([3]; 4°C, 0 h (initial), parallel sample 1): 4690 ng/mL
- Concentration after storage in human blood ([3]; 4°C, 0 h (initial), parallel sample 2): 4720 ng/mL
- Concentration after storage in human blood ([3]; 4°C, 0.5 h, parallel sample 1): 4290 ng/mL
- Concentration after storage in human blood ([3]; 4°C, 0.5 h, parallel sample 2): 4120 ng/mL
- Concentration after storage in human blood ([3]; 4°C, 1 h, parallel sample 1): 4420 ng/mL
- Concentration after storage in human blood ([3]; 4°C, 1 h, parallel sample 2): 4350 ng/mL
- Concentration after storage in human blood ([3]; 4°C, 2 h, parallel sample 1): 5100 ng/mL
- Concentration after storage in human blood ([3]; 4°C, 2 h, parallel sample 2): 4890 ng/mL
- Concentration after storage in human blood ([3]; 4°C, 3 h, parallel sample 1): 5250 ng/mL
- Concentration after storage in human blood ([3]; 4°C, 3 h, parallel sample 2): 5320 ng/mL
- Concentration after storage in human blood ([3]; 4°C, 4 h, parallel sample 1): 5130 ng/mL
- Concentration after storage in human blood ([3]; 4°C, 4 h, parallel sample 2): 4950 ng/mL
- Concentration after storage in human blood ([3]; 4°C, 5 h, parallel sample 1): 4820 ng/mL
- Concentration after storage in human blood ([3]; 4°C, 5 h, parallel sample 2): 4820 ng/mL
- Concentration after storage in human blood ([3]; 4°C, 8 h, parallel sample 1): 4460 ng/mL
- Concentration after storage in human blood ([3]; 4°C, 8 h, parallel sample 2): 4850 ng/mL
- Concentration after storage in human blood ([3]; 4°C, 12 h, parallel sample 1): 4560 ng/mL
- Concentration after storage in human blood ([3]; 4°C, 12 h, parallel sample 2): 4680 ng/mL
- Concentration after storage in human blood ([3]; 4°C, 24 h, parallel sample 1): 4690 ng/mL
- Concentration after storage in human blood ([3]; 4°C, 24 h, parallel sample 2): 5280 ng/mL
- Concentration after storage in human blood ([3]; room temperature (25°C), 0 h (initial), parallel sample 1): 6890 ng/mL
- Concentration after storage in human blood ([3]; room temperature (25°C), 0 h (initial), parallel sample 2): 6660 ng/mL
- Concentration after storage in human blood ([3]; room temperature (25°C), 0.5 h, parallel sample 1): 6830 ng/mL
- Concentration after storage in human blood ([3]; room temperature (25°C), 0.5 h, parallel sample 2): 6630 ng/mL
- Concentration after storage in human blood ([3]; room temperature (25°C), 1 h, parallel sample 1): 6130 ng/mL
- Concentration after storage in human blood ([3]; room temperature (25°C), 1 h, parallel sample 2): 6130 ng/mL
- Concentration after storage in human blood ([3]; room temperature (25°C), 2 h, parallel sample 1): 6700 ng/mL
- Concentration after storage in human blood ([3]; room temperature (25°C), 2 h, parallel sample 2): 6150 ng/mL
- Concentration after storage in human blood ([3]; room temperature (25°C), 3 h, parallel sample 1): 7160 ng/mL
- Concentration after storage in human blood ([3]; room temperature (25°C), 3 h, parallel sample 2): 6780 ng/mL
- Concentration after storage in human blood ([3]; room temperature (25°C), 4 h, parallel sample 1): 6420 ng/mL
- Concentration after storage in human blood ([3]; room temperature (25°C), 4 h, parallel sample 2): 6420 ng/mL
- Concentration after storage in human blood ([3]; room temperature (25°C), 5 h, parallel sample 1): 6890 ng/mL
- Concentration after storage in human blood ([3]; room temperature (25°C), 5 h, parallel sample 2): 6710 ng/mL
- Concentration after storage in human blood ([3]; room temperature (25°C), 8 h, parallel sample 1): 6970 ng/mL
- Concentration after storage in human blood ([3]; room temperature (25°C), 8 h, parallel sample 2): 6650 ng/mL
- Concentration after storage in human blood ([3]; room temperature (25°C), 12 h, parallel sample 1): 7950 ng/mL
- Concentration after storage in human blood ([3]; room temperature (25°C), 12 h, parallel sample 2): 8190 ng/mL
- Concentration after storage in human blood ([3]; room temperature (25°C), 24 h, parallel sample 1): 7050 ng/mL
- Concentration after storage in human blood ([3]; room temperature (25°C), 24 h, parallel sample 2): 6720 ng/mL

Substance: polymyxin B2 [PB2]
- Stability of working solutions [1]: remained stable after storage at −70 °C for up to 7 days but not beyond 10 days
